Reference: article PMC13464545, “Mouse Norovirus Uses Host Metabolites to Enhance Receptor Binding and Evade Immune Recognition” (Medical research archives, 2022)
pKd: −log10 of the molar value.

Target: T1, MNV P domain (Murine norovirus 1, UniProt Q80J94)
T1 construct: gene ORF2; C-terminal protruding (P) domain of VP1, expressed as soluble form without the shell domain; dimerizes
Assay: isothermal titration calorimetry
Type: binding

T1 sequence (Q80J94 229-541): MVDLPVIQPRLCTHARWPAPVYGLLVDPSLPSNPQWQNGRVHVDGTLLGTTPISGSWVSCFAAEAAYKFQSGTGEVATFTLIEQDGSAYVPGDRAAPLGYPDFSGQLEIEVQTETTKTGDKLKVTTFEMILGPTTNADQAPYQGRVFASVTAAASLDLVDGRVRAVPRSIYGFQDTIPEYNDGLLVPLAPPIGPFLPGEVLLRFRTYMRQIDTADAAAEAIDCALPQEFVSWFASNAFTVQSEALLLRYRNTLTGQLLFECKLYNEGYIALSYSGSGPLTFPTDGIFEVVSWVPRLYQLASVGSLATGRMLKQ

Work on C[C@H](CCC(=O)NCC(=O)O)[C@H]1CC[C@H]2[C@@H]3[C@H](O)C[C@@H]4C[C@H](O)CC[C@]4(C)[C@H]3CC[C@]12C [GCDCA] yielded a pKd of ~4.89.
